Laboratory results published in US5614526A, “Use of phenoxy-piperzine derivatives” (Hoffmann-La Roche Inc., priority 1995, dated 1997).

Columns and labels:
dopamine-D4 receptor = molecular target: T1, dopamine-D4 receptor (Homo sapiens, UniProt P21917); experiment: Binding at the D4 receptor, [3H]spiperone displacement, membranes of D4-CHO cells; conditions: room temperature, 90 minutes
T1 construct: expressed in transfected cells; host or cells: CHO (Chinese Hamster Ovary) cells, D4-CHO; crude membranes
T1 sequence (P21917 1-419): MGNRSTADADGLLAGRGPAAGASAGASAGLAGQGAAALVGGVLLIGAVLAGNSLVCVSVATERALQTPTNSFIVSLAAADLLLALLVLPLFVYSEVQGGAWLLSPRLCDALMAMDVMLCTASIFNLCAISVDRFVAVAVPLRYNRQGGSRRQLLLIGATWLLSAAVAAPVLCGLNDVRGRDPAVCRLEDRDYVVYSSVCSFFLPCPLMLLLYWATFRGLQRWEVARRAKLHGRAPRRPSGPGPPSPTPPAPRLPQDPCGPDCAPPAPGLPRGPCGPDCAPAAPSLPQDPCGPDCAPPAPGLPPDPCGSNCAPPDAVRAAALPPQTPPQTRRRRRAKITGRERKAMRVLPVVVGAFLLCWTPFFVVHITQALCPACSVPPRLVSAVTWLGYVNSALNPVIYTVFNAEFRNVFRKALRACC
Protocol: Compounds of formula I were characterized by their binding behavior at the D4 receptor. CHO cells (Chinese Hamster Ovary) were used in the test. Crude membranes were isolated by ultracentrifugation from D4 -CHO and D2 -CHO cells and were stored at -80° C. After thawing and homogenizing in a buffer solution (50mM Tris, 1 mM EDTA, 5 mM KCl, 1.5 mM CaCl2, 4 mM MgCl2, pH 7.4) they were incubated at room temperature for 90 minutes with 200 pM [^3 H] spiperone and an increasing concentration (1×10^-11 M to 1×10^-4 M) of test compound. A non-specific binding was established by incubating in the presence of 1×10^-5 M (+)-butaclamol. The unbound radioligand was removed by filtration through a GF/C glass filter and the bound radioactivity was determined by scintillation in a Packard TopCount. […] The calculation of the value was effected with ligand.

D2 receptor = experiment: Binding at the D2 receptor, [3H]spiperone displacement, membranes of D2-CHO cells (selectivity vs. D4); conditions: ratio of the Ki values at the D2 receptor and at the D4 receptor
Protocol: CHO cells (Chinese Hamster Ovary) were used in the test. Crude membranes were isolated by ultracentrifugation from D4 -CHO and D2 -CHO cells and were stored at -80° C. After thawing and homogenizing in a buffer solution (50mM Tris, 1 mM EDTA, 5 mM KCl, 1.5 mM CaCl2, 4 mM MgCl2, pH 7.4) they were incubated at room temperature for 90 minutes with 200 pM [^3 H] spiperone and an increasing concentration (1×10^-11 M to 1×10^-4 M) of test compound. A non-specific binding was established by incubating in the presence of 1×10^-5 M (+)-butaclamol. The unbound radioligand was removed by filtration through a GF/C glass filter and the bound radioactivity was determined by scintillation in a Packard TopCount.
Compounds of formula I were compared with respect to their D2 receptor activity.

SMILES	Ki (dopamine-D4 receptor; Table 2, 200 pM [3H]spiperone) [nM]	Sel. vs. D2 (D2 receptor)	Ki (dopamine-D4 receptor; Table 1, 200 pM [3H]spiperone) [nM]
Cc1cccc(OCC(O)CN2CCN(c3ccccc3)CC2)c1 (stereo not drawn) [Compound 23]	9.6	300	
CC(=O)Nc1ccccc1OCC(O)CN1CCN(c2ccccc2O)CC1 (stereo not drawn) [Compound 8, N-[2-[2-Hydroxy-3-[4-(2-hydroxy-phenyl)-piperazin-1-yl]-propoxy]-phenyl]-acetamide]			< 100
COc1ccccc1N1CCN(CC(O)COc2ccccc2NC(C)=O)CC1 (single isomer, unassigned) [12(-), [-]-N-[2-[2-Hydroxy-3-[4-(2-methoxy-phenyl)-piperazin-1-yl]-propoxy]phenyl]-acetamide]			< 100
OC(COc1cccc(C(F)(F)F)c1)CN1CCN(c2ccc(Cl)cc2)CC1 (stereo not drawn) [Compound 5, 1-[4-(4-Chloro-phenyl)-piperazin-1-yl]-3-(3-trifluoro-methyl-phenoxy)-propan-2-ol]			< 100
CCC(=O)Nc1ccccc1OCC(O)CN1CCN(c2ccccc2OC)CC1 (stereo not drawn) [Compound 13, N-[2-[2-Hydroxy-3-[4-(2-methoxy-phenyl)-piperazin-1-yl]-propoxy]-phenyl]propionamide]			< 100
Nc1ccccc1OCC(O)CN1CCN(c2ccccc2)CC1 (stereo not drawn) [Compound 2, 1-(2-Amino-phenoxy)-3-(4-phenyl-piperazin-1-yl)-propan-2-ol]			< 100
COc1ccccc1N1CCN(CC(O)COc2ccccc2NC(C)=O)CC1 (single isomer, unassigned) [11(+), [+]-N-[2-[2-Hydroxy-3-[4-(2-methoxy-phenyl)-piperazin-1-yl]-propoxy]phenyl]-acetamide]			< 100
COc1ccccc1N1CCN(CC(COc2ccccc2NC(C)=O)OC(C)=O)CC1 (stereo not drawn) [Compound 30, Ethyl 2-(2-acetylamino-phenoxy)-1-[4-(2-methoxy-phenyl)-piperazin-1-ylmethyl]-acetate]			< 100
COc1ccccc1N1CCN(CC(O)COc2cc(C)ccc2NC(C)=O)CC1 (stereo not drawn) [Compound 20, N-[2-[2-Hydroxy-3-[4-(2-methoxy-phenyl)-piperazin-1-yl]-propoxy]-4-methyl-phenyl]-acetamide]			< 100
COc1ccccc1N1CCN(CC(O)COc2ccc(C)cc2NC(C)=O)CC1 (stereo not drawn) [Compound 19, N-[2-[2-Hydroxy-3-[4-(2-methoxy-phenyl)-piperazin-1-yl]-proxpoxy]-5-methyl-phenyl]-acetamide]			< 100
C/C=C/C(=O)Nc1ccccc1OCC(O)CN1CCN(c2ccccc2OC)CC1 (single isomer, unassigned) [Compound 16, [+]-(E)-But-2-enolic acid [2-[2-hydroxy-3-[4-(2-methoxy-phenyl)-piperazin-1-yl]-propoxy]-phenyl]-amide]			< 100
CCC(=O)Nc1ccccc1OCC(O)CN1CCN(c2ccccc2)CC1 (stereo not drawn) [Compound 24]	29	233	
COc1ccccc1N1CCN(CC(O)COc2ccc([N+](=O)[O-])cc2NC(C)=O)CC1 (stereo not drawn) [Compound 27]	15	112	
COc1ccccc1N1CCN(CC(O)COc2ccccc2NC(=O)C(C)(C)C)CC1 (stereo not drawn) [Compound 15, N-[2-[2-Hydroxy-3-[4-(2-methoxy-phenyl)-piperazin-1-yl]-propoxy]-phenyl]-2,2-dimethyl-propionamide]			< 100
COc1ccccc1N1CCN(CC(O)COc2ccccc2NC(C)=O)CC1 (racemic) [10(rac), N-[2-[2-Hydroxy-3-[4-(2-methoxy-phenyl)-piperazin-1-yl]-propoxy]-phenyl]-acetamide]			< 100
COc1ccccc1N1CCN(CC(O)COc2ccccc2NC(=O)c2ccco2)CC1 (stereo not drawn) [Compound 17, Furan-2-carboxylic acid [2-[2hydroxy-3-[4-(2-methoxy-phenyl)piperazin-1-yl]-propoxy]-phenyl]-amide]			< 100
Nc1ccccc1OCC(O)CN1CCN(c2ccccc2[N+](=O)[O-])CC1 (stereo not drawn) [Compound 22, 1-(2-Amino-phenoxy)-3-[4-(2-nitro-phenyl)-piperazin-1-yl]-propan-2-ol]			< 100
COc1ccccc1N1CCN(CC(O)COc2ccccc2NS(C)(=O)=O)CC1 (stereo not drawn) [Compound 26]	3.2	177	
OC(COc1ccccc1)CN1CCN(c2ccccc2)CC1 (stereo not drawn) [Compound 1, 1-Phenoxy-3-(4-phenyl-piperazin-1-yl)-propan-2-ol]			< 100
CC(=O)Nc1ccccc1OCC(O)CN1CCN(c2ccccc2[N+](=O)[O-])CC1 (stereo not drawn) [Compound 29]	8.7	360	
CCCCCC(=O)Nc1ccccc1OCC(O)CN1CCN(c2ccccc2OC)CC1 (stereo not drawn) [Compound 14, Hexanoic acid [2-[2-hydroxy-3-[4-(2-methoxy-phenyl)-piperazin-1-yl]propoxy]-phenyl]-amide]			< 100
CCOc1ccccc1N1CCN(CC(O)COc2ccccc2NC(=O)CC)CC1 (stereo not drawn) [Compound 21, N-[2-[3-[4-(2-Ethoxy-phenyl)-piperazin-1-yl]-2-hydroxy-propoxy]-phenyl]propionamide]			< 100
NC(=O)c1ccccc1OCC(O)CN1CCN(c2ccccc2)CC1 (stereo not drawn) [Compound 4, 2-[2-Hydroxy-3-(4-phenyl-piperazin-1-yl)-propoxy]-benzamide]			< 100
COc1cc(O)ccc1N1CCN(CC(O)COc2ccccc2NC(C)=O)CC1 (stereo not drawn) [Compound 25]	10.2	1370	
CC(=O)Nc1ccccc1OCC(O)CN1CCN(c2ccccc2C)CC1 (stereo not drawn) [Compound 6, N-[2-[2-Hydroxy-3-(4-o-tolyl-piperazin-1-yl)-propoxy]-phenly]-acetamide]			< 100
COc1ccccc1N1CCN(CC(COc2ccccc2NC(C)=O)OC(C)=O)CC1 (single isomer, unassigned) [31(+), Ethyl [+]-2-(2-acetylamino-phenoxy)-1-[4-(2-methoxy-phenyl)-piperazin-1-ylmethyl]acetate]			< 100
COc1ccccc1N1CCN(CC(O)COc2ccccc2NC(N)=O)CC1 (stereo not drawn) [Compound 18, [2-[2-Hydroxy-3-[4-(2-methoxy-phenyl)-piperazin-1-yl]propoxy]-phenyl]-urea]			< 100
CC(=O)c1ccccc1OCC(O)CN1CCN(c2ccccc2)CC1 (stereo not drawn) [Compound 3, 1-[2-[2-Hydroxy-3-(4-phenyl-piperazin-1-yl)-propoxy]-phenyl]-ethanone]			< 100
COc1ccccc1N1CCN(CC(O)COc2ccccc2N)CC1 (single isomer, unassigned) [9(+), [+]-1-(2-Amino-phenoxy)-3-[4(2-methoxy-phenyl)-piperazin-1-yl]-propan-2-ol]			< 100
CC(=O)Nc1ccccc1OCC(O)CN1CCN(c2ccccc2C(F)(F)F)CC1 (stereo not drawn) [Compound 7, N-[2-[2-Hydroxy-3-[4-(2-trifluoromethyl-phenyl)-piperazin-1yl]-propoxy]phenyl]-acetamide]			< 100
